Experimental data published in patent publication US9889176B2, “Treating renal and liver dysfunction with TLR4 antagonists” (YAQRIT LIMITED, priority 2010, dated 2018).

Key:
[1] = tested on: bile duct ligated (BDL) rat; experiment: Bile duct ligated (BDL) rat model of cirrhosis with or without LPS: renal dysfunction, selective gut decontamination; format: in vivo, Sprague-Dawley rats; details: for kidney TLR4 protein expression (Western Blot) / plasma creatinine: Norfloxacin 20 mg/kg orally for 10 days; for kidney TLR4 protein expression (Western Blot): FIG. 9; for NFkBp65 expression in Kidney: FIG. 10; for plasma creatinine: FIG. 8
Excerpt: These experiments utilised an established animal model of cirrhosis, the bile duct ligated (BDL) rat. BDL rats may be generated by methods known in the art. For example, male Sprague-Dawley rats (200-250 g) may be used for this procedure. Following anaesthetisation, a mid-line laparotamy may be performed, the bile duct exposed, triply ligated with 4.0 silk suture, and severed between the second and third ligature. The wound is then closed in layers with absorbable suture, and the animal allowed to recover in a quiet room before being returned to the animal storage facility. 6 groups of Sprague-Dawley rats were studied: n=6 in each group. […] The aims of this study was to determine (1) Whether cirrhosis is associated with an upregulation of TLR4, NFkB and proinflammatory cytokines in kidney. […] Biochemistry: Functional aspect of Kidneys was assessed by measuring plasma creatinine. Protein expression of TLR4 and NFkBp65 was assessed using a commonly used Western Blot technique. Localisation of TLR4 and Caspase (effector protein leading to cell death) was done by Immunohistochemistry. Cytokines were quantified using the ELISA bead array.

BDL rats = experiment: Brain TLR4 expression, brain water and survival in BDL rats with or without LPS; format: in vivo; details: for brain TLR4 immunohistochemistry: FIG. 23
Excerpt: These experiments utilised an established animal model of cirrhosis, the bile duct ligated (BDL) rat. BDL rats may be generated by methods known in the art. For example, male Sprague-Dawley rats (200-250 g) may be used for this procedure. Following anaesthetisation, a mid-line laparotamy may be performed, the bile duct exposed, triply ligated with 4.0 silk suture, and severed between the second and third ligature. The wound is then closed in layers with absorbable suture, and the animal allowed to recover in a quiet room before being returned to the animal storage facility. 6 groups of Sprague-Dawley rats were studied: n=6 in each group. […] Experiments were carried out using Sham treated and BDL rats as described above.

[2] = BDL and BDL+LPS groups, FIG. 13

## CCn1cc(C(=O)O)c(=O)c2cc(F)c(N3CCNCC3)cc21 [Norfloxacin]
[1]; BDL and BDL+LPS groups, FIG. 11
  kidney TNFα: prevented the rise
[1]; BDL and BDL+LPS groups, FIG. 12
  Kidney IL6 (local IL6 production): no effect
[1]; [2]
  plasma IL6 (systemic proinflammatory cytokine): reducing the secretion of cytokines
  plasma TNFα (systemic proinflammatory cytokine): reducing the secretion of cytokines
[1]; BDL and BDL+LPS groups, FIG. 16
  kidney caspase 3 (cell death), immunohistochemistry: reduction in the caspase positivity
[1]; BDL group administered LPS, p=0.02
  kidney TLR4 protein expression (Western Blot): reduced
[1]; BDL rats administered LPS, p=0.01
  NFkBp65 expression in Kidney: attenuated
[1]; BDL rats, p=0.02
  plasma creatinine: reduction
  kidney TLR4 protein expression (Western Blot): reduced
  NFkBp65 expression in Kidney: attenuated
[1]; BDL rats, selective gut decontamination
  renal failure induced by LPS: prevents renal failure
[1]; BDL+LPS rats, p=0.03
  plasma creatinine: reduction
BDL rats; BDL animals treated with LPS
  brain TLR4 immunohistochemistry: could be prevented
BDL rats; BDL animals
  brain TLR4 immunohistochemistry: could be prevented
BDL rats; increase in BDL and BDL+LPS rats, FIG. 22
  brain TLR4 protein expression: could be prevented
BDL rats; increase in BDL and BDL+LPS rats, FIG. 24
  brain swelling measured by brain water: could be prevented
